In brackets after ≈: the same amount, converted by molar mass.
What was measured:
[1] = Aqueous solubility (saturation shake-flask, UV); format: physicochemical; conditions: aqueous buffer, thermodynamic from solid, pH 7.0 phosphate buffer, room temperature
Procedure: The aqueous solubility was determined in a Helios-α UV-320 Spectrophotometer Thermo-Spectronic, Thermo Fischer Scientific, Waltham, MA, USA) using an approach based on the saturation shake-flask method. 1–2 mg of each selected compound was suspended in 300 µL pH 7.0 buffer and stirred for 48 h at room temperature. The resulting mixture was filtered through a […] filter to discard the insoluble residues. A scan between 270 and 400 nm for the tested compound was performed and three wavelengths of maximum absorbance were selected. Calibration curves were performed at these wavelengths and the concentration in the supernatant was measured by UV absorbance. The final value was given as the average of the three measurements.

[2] = system: HeLa (human cervical carcinoma) cells; test: Cell growth assay (XTT), HeLa; format: cell-based; conditions: 72 h drug exposure, read-out: Antiproliferative activity IC50 HeLa
Outline: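 Cells (1.5 × 10^4 cells/mL for MCF7, HeLa, HEK293; 3 × 10^4 cells/mL for HT-29) attached 24 h, then treated 72 h at 37 °C, 5% CO2. Screened at 1 µM; IC50 versus untreated controls from 10^−5 to 10^−10 M by nonlinear fit. XTT/PMS absorbance at 450 nm after 4 h (MCF7, HeLa) or 6 h (HT-29, HEK293); HT-29 with 10 µM verapamil.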

[3] = system: HeLa cells; test: Cell cycle analysis (PI, flow cytometry), HeLa; format: cell-based, human
Procedure: MCF7, HeLa, and HT-29 cell cycle analyses were performed by quantifying the DNA content by flow cytometry. Cells in the exponential growth phase at 2 × 10^4 cells/mL were seeded in 24-well plates (1 ml/well). After 24 h incubation, cells were treated with compound 25 at 87.5 or 175 nM. After 24, 48, and 72 h treatments, live and dead cells were collected and fixed in ice-cold ethanol:PBS (7:3) and stored at 4 °C for later use. Cells were rehydrated with phosphate-buffered saline (PBS), treated with 100 µg/mL RNase A (Sigma-Aldrich Co., St. Louis, MO, USA), and stained overnight in darkness at room temperature with 50 µg/mL propidium iodide (PI) (Sigma-Aldrich Co.). Cell cycle profiles were then analysed by flow cytometry using BD Accuri™ C6 Plus Flow Cytometer (BD Biosciences, San José, CA, USA). Data were analysed with BD Accuri™ C6 Software (version 1.0.264.21, BD Biosciences, San José, CA, USA) and compared to control cells treated with 0.5% (v/v) DMSO. Compounds were dissolved in DMSO and the final solvent concentrations never exceeded 0.5% (v/v).

[4] = system: HeLa cells; test: Apoptotic cell death quantification (Annexin V-FITC/PI), HeLa; format: cell-based, human; conditions: 72 h
Procedure: MCF7, HeLa, and HT-29 apoptotic cells were quantified using an Annexin V-FITC/PI apoptosis detection kit (Immunostep, Salamanca, Spain) according to the manufacturer’s guidelines. 1.5 ml/well of cells in the exponential growth phase at 2 × 10^4 cells/mL were seeded onto 12-well plates and left to attach overnight. After 24 h incubation, cells were treated with compound 25 at 87.5 or 175 nM. 72 h post-treatment, attached and floating cells of treated and untreated wells were collected, centrifuged, resuspended in the Annexin V binding buffer, and stained with Annexin V-FITC/PI. Cells were then incubated in darkness at room temperature for 15 min and a total of 30,000 cells were acquired and analysed using the BD Accuri™ C6 Plus Flow Cytometer and Software (version 1.0.264.21, BD Biosciences, San José, CA, USA), respectively. Compounds were dissolved in DMSO and the final solvent concentrations never exceeded 0.5% (v/v). Control wells included cells with 0.5% (v/v) DMSO.

Q: What does the source list for `COc1ccc(S(=O)(=O)N(CC#N)c2cc(OC)c(Br)cc2OC)cc1` [Compound 25, N-(4-bromo-2,5-dimethoxyphenyl)-N-(cyanomethyl)-4-methoxybenzenesulphonamide]?
A: solubility at 48 h [1]: 1 µg/mL (≈ 2.27 µM); IC50 [2]: 36 nM; Cells at G2/M phase ([3]; 87.5 nM, 24 h): 82%; Cells at G2/M phase ([3]; 87.5 nM, 48 h): 54%; subG0/G1 population ([3]; 87.5 nM, 48 h): 34%; Cells at G2/M phase ([3]; 87.5 nM, 72 h): 41%; Cells at G2/M phase ([3]; 175 nM, 24 h): 86%; Cells at G2/M phase ([3]; 175 nM, 48 h): 48%; subG0/G1 population ([3]; 175 nM, 48 h): 29%; Cells at G2/M phase ([3]; 175 nM, 72 h): 49%; subG0/G1 population ([3]; 72 h, one value printed for 87.5 and 175 nM): 38%; Early apoptosis ([4]; 87.5 nM): 52.3%; Late apoptosis ([4]; 87.5 nM): 39.7%; Live (AnV–/PI–) ([4]; 87.5 nM): 6.5%; Necrosis ([4]; 87.5 nM): 1.5%; Early apoptosis ([4]; 175 nM): 47.5%; Late apoptosis ([4]; 175 nM): 45.3%; Live (AnV–/PI–) ([4]; 175 nM): 4.1%; Necrosis ([4]; 175 nM): 3.1%; Apoptotic profile ([4]; 87.5 and 175 nM): > 90%
